US8846694B2, “Pyrrolidone derivatives for use as MetAP-2 inhibitors” (Merck Patent GmbH, priority 2008, dated 2014)

What follows are compounds tested against MetAP-2 (Homo sapiens, UniProt P50579) (assay: MetAP-2 activity measurement (coupled enzymatic reactions, substrate Met-Arg-Ser, photometric at 450 nm)). Settings: read-out: IC50 enzyme (Inhibition of MetAP-2).
Assay type: biochemical
Method in brief: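 Human MetAP-2 cleaves Met-Arg-Ser; the freed methionine is oxidized by L-amino acid oxidase, and the resulting H2O2 drives peroxidase oxidation of dianisidine, read continuously at 450 nm. Activity is taken as the slope in the visually linear region.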

Sequence of MetAP-2 (P50579 whole entry, species assumed): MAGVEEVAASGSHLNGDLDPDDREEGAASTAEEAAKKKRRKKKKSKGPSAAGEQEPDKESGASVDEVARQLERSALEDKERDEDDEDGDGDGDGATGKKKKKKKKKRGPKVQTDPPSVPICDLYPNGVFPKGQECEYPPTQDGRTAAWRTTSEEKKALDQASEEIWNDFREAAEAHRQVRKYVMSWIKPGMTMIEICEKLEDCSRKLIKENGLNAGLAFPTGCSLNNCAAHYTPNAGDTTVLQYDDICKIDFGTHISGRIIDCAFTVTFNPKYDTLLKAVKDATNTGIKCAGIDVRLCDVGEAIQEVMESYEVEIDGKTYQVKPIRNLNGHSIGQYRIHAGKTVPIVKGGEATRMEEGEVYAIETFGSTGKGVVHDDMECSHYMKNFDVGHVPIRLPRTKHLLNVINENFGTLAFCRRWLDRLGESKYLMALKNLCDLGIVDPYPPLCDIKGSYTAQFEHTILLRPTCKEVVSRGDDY

| Compound | IC50 |
| --- | --- |
| O=C1c2cccc(OC[C@H]3CCCN3c3ncnc4[nH]cnc34)c2CC[C@H]1Cc1cc[nH]n1 [A130, (S)-5-[(R)-1-(9H-Purin-6-yl)pyrrolidin-2-yl-methoxy]-2-(1H-pyrazol-3-ylmethyl)-3,4-dihydro-2H-naphthalen-1-one] | 10 to 1000 nM |
| Oc1ccc2cccc(NC[C@H]3CCCN3c3ncnc4[nH]cnc34)c2c1 [A131, 8-{[(R)-1-(9H-Purin-6-yl)pyrrolidin-2-ylmethyl]-amino}naphthalen-2-ol] | > 10000 nM |
| O=S(=O)(O)c1ccc2cccc(NC[C@H]3CCCN3c3ncnc4[nH]cnc34)c2c1 [A132, 8-{[(R)-1-(9H-Purin-6-yl)pyrrolidin-2-yimethyl]-amino}naphthalene-2-sulfonic acid] | > 10000 nM |
| CC(C)(C)OC(=O)NCCCCCC(=O)N1CCc2cccc(OC[C@H]3CCCN3c3ncnc4[nH]cnc34)c2C1 [A133, tert-Butyl (6-oxo-6-{8-[(R)-1-(9H-purin-6-yl)-pyrrolidin-2-ylmethoxy]-3,4-dihydro-1H-isoquinolin-2-yl}hexyl)carbamate] | 1000 to 10000 nM |
| O=C1OCCC1CCn1cnc2c(N3CCC[C@@H]3COc3cccc4ccc(O)cc34)ncnc21 (stereo partly drawn) [A134, 3-(2-{6-[(R)-2-(7-Hydroxynaphthalen-1-yl-oxymethyl)pyrrolidin-1-yl]purin-9-yl}ethyl)-dihydrofuran-2-one] | 1000 to 10000 nM |
| NC(=O)CCn1cnc2c(N3CCC[C@@H]3COc3cccc4ccc(O)cc34)ncnc21 [A135, 3-{6-[(R)-2-(7-Hydroxynaphthalen-1-yl-oxymethyl)pyrrolidin-1-yl]purin-9-yl}-propionamide] | > 10000 nM |
| CCOC(=O)CCCCn1cnc2c(N3CCC[C@@H]3COc3cccc4ccc(O)cc34)ncnc21 [A136, Ethyl 5-{6-[(R)-2-(7-hydroxynaphthalen-1-yl-oxymethyl)pyrrolidin-1-yl]purin-9-yl}pentanoate] | > 10000 nM |
| FC(F)(F)Oc1ccc2nccc(OC[C@H]3CCCN3c3ncnc4[nH]cnc34)c2c1 [A137, 4-[(R)-1-(9H-Purin-6-yl)pyrrolidin-2-ylmethoxy]-6-trifluoromethoxyquinoline] | 10 to 1000 nM |
| NCCCCCC(=O)N1CCc2cccc(OC[C@H]3CCCN3c3ncnc4[nH]cnc34)c2C1 [A138, 6-Amino-1-{8-[(R)-1-(9H-purin-6-yl)pyrrolidin-2-ylmethoxy]-3,4-dihydro-1H-isoquinolin-2-yl}-hexan-1-one] | 10 to 1000 nM |
| CCCCOC(=O)c1cc(OC[C@H]2CCCN2c2ncnc3[nH]cnc23)c2cc(F)ccc2n1 [A139, Butyl 6-fluoro-4-[(R)-1-(9H-purin-6-yl)pyrrolidin-2-ylmethoxy]quinoline-2-carboxylate] | 10 to 1000 nM |
| [O-][n+]1c(C(F)(F)F)cc(OC[C@H]2CCCN2c2ncnc3[nH]cnc23)c2cc(F)ccc21 [A140, 6-Fluoro-4-[(R)-1-(9H-purin-6-yl)pyrrolidin-2-yl-methoxy]-2-trifluoromethylquinoline 1-oxide] | 10 to 1000 nM |
| O=C(O)c1cc(OC[C@H]2CCCN2c2ncnc3[nH]cnc23)c2cc(F)ccc2n1 [A141, 6-Fluoro-4-[(R)-1-(9H-purin-6-yl)pyrrolidin-2-yl-methoxy]quinoline-2-carboxylic acid] | 10 to 1000 nM |
| O=[N+]([O-])c1ccc2cccc(OC[C@H]3CCCN3c3ncnc4[nH]cnc34)c2c1 [A142, 6-[(R)-2-(7-Nitronaphthalen-1-yloxymethyl)-pyrrolidin-1-yl]-9H-purine] | 10 to 1000 nM |
| CNc1ccccc1C(=O)OC[C@H]1CCCN1c1ncnc2[nH]cnc12 [A143, (R)-1-(9H-purin-6-yl)pyrrolidin-2-ylmethyl 2-methylaminobenzoate] | 10 to 1000 nM |
| Nc1ccc2cccc(OC[C@H]3CCCN3c3ncnc4[nH]cnc34)c2c1 [A144, 8-[(R)-1-(9H-Purin-6-yl)pyrrolidin-2-yl-methoxy]naphthalen-2-ylamine] | 10 to 1000 nM |
| CN1CCN(c2ccc3cccc(OC[C@H]4CCCN4c4ncnc5[nH]cnc45)c3c2)CC1 [A145, 6-{(R)-2-[7-(4-Methylpiperazin-1-yl)naphthalen-1-yloxymethyl]pyrrolidin-1-yl}-9H-purine] | 1000 to 10000 nM |
